# Measured values taken from patent US9849129B2, “Sodium channel blockers for skin disorders” (PARION SCIENCES, INC., priority 2015, dated 2017).
# How the values were obtained:
# mouse corneas = assay: Confocal microscopy of drug penetration in mouse corneas; conditions: one hour after application to corneal epithelium, 37° C. (FIG. 2)
# Description: Corneal cells were labeled using calcein-AM dye by incubating with corneas for 45 minutes at 37° C. in DMEM media. […] Serial x-y images were obtained one hour post-drug addition by confocal microscopy. […] Pharmacological Effects and Mechanism of Action of the Drug in Animals
# [1] = target: T1, airway epithelial sodium currents (epithelial sodium channel, ENaC) (UniProt A0A8I3MKE6+A0A8I3Q679+Q95165); assay: Sodium channel blocking activity: short circuit current (ISC) in airway epithelial monolayers in Ussing chambers; conditions: for IC50: read-out: Potency of Sodium Channel Blockade (IC50), lumenal addition, airway epithelial monolayers (human, dog, sheep or rodent cells, not specified)
# T1 sequence (A0A8I3MKE6 1-646): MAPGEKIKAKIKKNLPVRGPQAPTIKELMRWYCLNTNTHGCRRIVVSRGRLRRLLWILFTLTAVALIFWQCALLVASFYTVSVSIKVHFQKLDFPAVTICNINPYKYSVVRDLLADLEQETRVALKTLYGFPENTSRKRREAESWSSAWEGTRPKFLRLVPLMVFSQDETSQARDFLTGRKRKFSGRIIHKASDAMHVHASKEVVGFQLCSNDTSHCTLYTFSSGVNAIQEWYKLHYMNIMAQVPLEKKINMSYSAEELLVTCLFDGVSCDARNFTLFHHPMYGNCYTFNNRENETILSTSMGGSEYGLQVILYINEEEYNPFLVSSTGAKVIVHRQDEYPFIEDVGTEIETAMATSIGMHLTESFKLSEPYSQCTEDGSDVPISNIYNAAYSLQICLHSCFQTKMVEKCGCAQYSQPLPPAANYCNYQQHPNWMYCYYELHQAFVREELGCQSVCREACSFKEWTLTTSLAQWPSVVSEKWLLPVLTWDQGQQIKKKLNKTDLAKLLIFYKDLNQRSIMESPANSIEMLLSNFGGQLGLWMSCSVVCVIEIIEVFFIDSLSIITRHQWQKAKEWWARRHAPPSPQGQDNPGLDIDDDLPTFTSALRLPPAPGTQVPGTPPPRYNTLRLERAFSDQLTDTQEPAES
# T1 sequence (A0A8I3Q679 1-649): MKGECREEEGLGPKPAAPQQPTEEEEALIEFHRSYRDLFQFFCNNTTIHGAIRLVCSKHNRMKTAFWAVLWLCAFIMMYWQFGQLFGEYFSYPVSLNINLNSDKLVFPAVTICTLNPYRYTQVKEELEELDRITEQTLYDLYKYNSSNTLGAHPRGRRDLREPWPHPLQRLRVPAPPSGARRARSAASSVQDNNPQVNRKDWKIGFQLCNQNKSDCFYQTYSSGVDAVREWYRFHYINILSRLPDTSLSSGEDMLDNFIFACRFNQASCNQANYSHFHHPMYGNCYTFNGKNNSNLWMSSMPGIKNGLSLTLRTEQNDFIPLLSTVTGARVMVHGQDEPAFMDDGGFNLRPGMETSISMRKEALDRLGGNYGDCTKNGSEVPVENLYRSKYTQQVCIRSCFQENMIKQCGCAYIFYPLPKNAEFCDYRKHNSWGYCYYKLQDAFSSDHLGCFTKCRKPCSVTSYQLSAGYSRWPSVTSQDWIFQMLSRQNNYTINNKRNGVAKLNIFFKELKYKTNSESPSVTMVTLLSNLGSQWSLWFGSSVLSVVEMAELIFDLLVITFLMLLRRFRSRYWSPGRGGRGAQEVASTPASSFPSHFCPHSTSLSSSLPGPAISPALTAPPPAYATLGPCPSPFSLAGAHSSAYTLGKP
# T1 sequence (Q95165 1-641): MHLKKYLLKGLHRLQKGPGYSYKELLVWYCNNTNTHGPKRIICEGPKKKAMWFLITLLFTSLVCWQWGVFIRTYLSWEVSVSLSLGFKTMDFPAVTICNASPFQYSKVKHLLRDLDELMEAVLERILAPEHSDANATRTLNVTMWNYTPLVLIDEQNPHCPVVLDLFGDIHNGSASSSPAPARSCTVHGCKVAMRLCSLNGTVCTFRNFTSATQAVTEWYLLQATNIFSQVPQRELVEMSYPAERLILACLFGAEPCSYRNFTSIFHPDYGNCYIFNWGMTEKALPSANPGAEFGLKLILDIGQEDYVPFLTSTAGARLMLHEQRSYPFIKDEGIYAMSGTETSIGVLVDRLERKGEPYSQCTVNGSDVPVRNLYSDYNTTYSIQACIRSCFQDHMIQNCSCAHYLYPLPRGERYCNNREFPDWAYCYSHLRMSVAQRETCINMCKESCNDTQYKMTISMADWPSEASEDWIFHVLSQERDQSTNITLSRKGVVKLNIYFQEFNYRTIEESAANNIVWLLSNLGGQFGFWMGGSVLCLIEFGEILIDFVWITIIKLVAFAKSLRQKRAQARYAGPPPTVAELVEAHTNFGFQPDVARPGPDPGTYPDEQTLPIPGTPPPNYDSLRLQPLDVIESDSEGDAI
# Description: One assay used to assess mechanism of action and/or potency of the compounds of the present invention involves the determination of lumenal drug inhibition of airway epithelial sodium currents measured under short circuit current (ISC) using airway epithelial monolayers mounted in Ussing chambers. Cells obtained from freshly excised human, dog, sheep or rodent airways are seeded onto porous 0.4 micron Snapwell™ Inserts (CoStar), cultured at air-liquid interface (ALI) conditions in hormonally defined media, and assayed for sodium transport activity (ISC) while bathed in Krebs Bicarbonate Ringer (KBR) in Ussing chambers. […] All drugs are prepared in dimethyl sulfoxide as stock solutions at a concentration of 1×10^−2 M and stored at 20° C. […] After the maximal concentration (5×10^−5 M) is administered, the lumenal bath is exchanged three times with fresh, drug-free KBR solution, and the resultant ISC measured after each wash for approximately 5 minutes in duration. Reversibility is defined as the percent return to the baseline value for sodium current after the third wash. All data from the voltage clamps are collected via a computer interface and analyzed off-line.
# Dose-effect relationships for all compounds are considered and analyzed by the Prism 3.0 program.
# Bronchial cells = assay: Apical disappearance assay (epithelial absorption); format: in vitro ADME; conditions: for Epithelial Uptake Rate: apical surface, initial concentration 10 μM
# Description: Bronchial cells (dog, human, sheep, or rodent cells) are seeded at a density of 0.25×10^6/cm^2 on a porous Transwell-Col collagen-coated membrane with a growth area of 1.13 cm^2 grown at an air-liquid interface in hormonally defined media that promotes a polarized epithelium. From 12 to 20 days after development of an air-liquid interface (ALI) the cultures are expected to be >90% ciliated, and mucins will accumulate on the cells. To ensure the integrity of primary airway epithelial cell preparations, the transepithelial resistance (Rt) and transepithelial potential differences (PD), which are indicators of the integrity of polarized nature of the culture, are measured. Human cell systems are preferred for studies of rates of absorption from apical surfaces. […] A series of samples (5 μl volume per sample) is collected at various time points, including 0, 5, 20, 40, 90 and 240 minutes. Concentrations are determined by measuring intrinsic fluorescence of each sodium channel blocker using a Fluorocount Microplate Flourometer or HPLC. Quantitative analysis employs a standard curve generated from authentic reference standard materials of known concentration and purity. Data analysis of the rate of disappearance is performed using nonlinear regression, one phase exponential decay (Prism V 3.0).
# [2] = tested on: primary human airway epithelial cells; assay: Confocal microscopy assay of amiloride congener uptake, airway epithelial cells; format: cell-based; conditions: 10 uM apical, 60 minute incubation (FIG. 1)
# Description: FIG. 1. […] Benzamil or Compound 2 (10 uM each) were added to the apical compartment of primary human airway epithelial cells. After a 60 minute incubation, the compounds were visualized by confocal microscopy.
# Virtually all amiloride-like molecules fluoresce in the ultraviolet range. This property of these molecules may be used to directly measure cellular update using x-z confocal microscopy. […] Serial x-z images are obtained with time and the magnitude of fluorescence accumulating in the cellular compartment is quantitated and plotted as a change in fluorescence versus time.
# Primary HBE cells were placed in an apparatus designed to position transwell membrane supports on a confocal microscope stage (Leica, Wetzlar, Germany). The glycocalyx and cilia were labeled with 3 μM wheat germ agglutinin-fluorescein (Molecular Probes, Eugene, Oreg.) for 45 mm at 37° C. to visualize the apical domain of HBE cell cultures. The autofluorescence of the cells was acquired prior to apical compound addition. Images were acquired with a 63× water immersion lens in the x-z plane. Benzamil was added to the mucosal compartment (10 μM; 350 μl), and images were recorded serially from 0 to 5 mm.
IC50 [1] [nM],Fold Increase in Potency (Relative to Amiloride) [1],Epithelial Uptake Rate (Bronchial cells) [nM/cm^2/min],Fold Decrease in Apical Absorption (Relative to Amiloride) (Bronchial cells),Cellular penetration/uptake seen by confocal microscopy ([2]; listed as benzamil),Compound,Corneal penetration seen by confocal microscopy (mouse corneas),Cellular penetration/uptake seen by confocal microscopy [2]
3.2,244,,,,N=C(N)NCCCC[C@@H](N)C(=O)NCCCN(CCCNC(=O)[C@H](N)CCCCNC(=N)N)CCOc1ccc(CCCCNC(=N)NC(=O)c2nc(Cl)c(N)nc2N)cc1 [Compound 3],remains associated with the apical (epithelial) surface,
116,6.5,9.0,0.2,,"NC(=Nc1ccccc1)NC(=O)c1nc(Cl)c(N)nc1N [Phenamil, reference compound]",,
10.2,77,0.2,10.0,,N=C(N)NCCOc1ccc(CCCCNC(=N)NC(=O)c2nc(Cl)c(N)nc2N)cc1 [Compound 2],,concentrated on the exterior cell surface
,,2,,,"N=C(N)NC(=O)c1nc(Cl)c(N)nc1N [Amiloride, reference compound]",can fully penetrate the cornea,
6.6,118,0.2,10.0,,N=C(NCCCCc1ccc(OCCN(CCCc2ccccc2)C[C@H](O)[C@@H](O)[C@H](O)[C@H](O)CO)cc1)NC(=O)c1nc(Cl)c(N)nc1N [Compound 5],,
7.4,105,,,,N=C(NCCCCc1ccc(OCC(O)CO)cc1)NC(=O)c1nc(Cl)c(N)nc1N (stereo not drawn) [Compound 1],,
5.9,186,,,,N=C(NCCCCc1ccc(OCCN(CCCc2cccc3ccccc23)C[C@H](O)[C@@H](O)[C@H](O)[C@H](O)CO)cc1)NC(=O)c1nc(Cl)c(N)nc1N [Compound 6],,
46,,6.6,0.3,rapidly taken up by the cells,NC(=NCc1ccccc1)NC(=O)c1nc(Cl)c(N)nc1N [Benzamil],,largely concentrated inside cells
